Laboratory results taken from US20250235507A1, “INHALABLE POROUS MICROSPHERE LOADED WITH RECOMBINANT HUMAN RELAXIN-2 AND PREPARATION METHOD THEREFOR” (SHANDONG UNIVERSITY, priority 2023, published 2025).

What was measured:
[1] = test system: bleomycin-induced pulmonary fibrosis mouse model; assay: Anti-fibrosis effect in bleomycin-induced pulmonary fibrosis mouse model (micro-CT, weight, lung wet weight); assay type: in vivo
Experimental: (§1) C57BL/6J mice (20±2 g, female) were purchased from Beijing Life River Experimental Animal Technology Co., Ltd, and were housed in specific pathogen-free animal facilities. For the induction of fibrosis, mice were treated with 100 μL of bleomycin (with concentration of 1 mg/mL) at a dose of 5 mg/Kg via tracheal intubation.
(§2) After two weeks of bleomycin administration, mice were divided into four groups. In the RLX@PMs group, porous microspheres loaded with RLX were administered at a single dose of 70 μg/mouse (including RLX) to each mouse via nebulization. Similarly, in the RLX-free group, the RLX-free solution was administered via nebulization at a dose of 5 μg/mouse daily for two weeks. In addition, a blank control group only nebulized with PBS (PBS group) was also set up. Pirfenidone was used as a positive control, and was administered via intragastric gavage to mice at a dose of 300 mg/kg daily for two weeks (PFD group). The weight of mice was recorded once every two days.
For further examination, after anesthesia, whole-lung imaging was performed using a micro-computed tomography (micro-CT) imaging system for small animals (scanning parameters: scan resolution, 18 μm; voltage, 70 kV; current, 100 μA). After treatment, all mice were euthanized and tissues were collected for further analysis, and lung coefficient was calculated by the wet weight of lungs.

[2] = test system: bleomycin-induced pulmonary fibrosis mouse model; assay: Lung histopathology: H&E, Masson trichrome and Sirius red staining; assay type: in vivo, C57BL/6J mice
Experimental: as §1, §2
In addition to in vivo imaging examination, we also used hematoxylin and eosin (H&E) staining, Masson's trichrome staining and Sirius red staining to detect the histological changes and collagen deposition in the lungs according to the manufacturer's instructions. After the mice were euthanized, the whole lung tissues were collected and fixed in 4% paraformaldehyde overnight. Subsequently, the tissues were subjected to gradient dehydration according to the standard procedure and embedded with paraffin. The lung tissues of mice were embedded in paraffin and cut into 3 μm sections, followed by H&E staining. […] The stained sections were imaged using a VS120 virtual slide microscope, and the severity of interstitial fibrosis was evaluated at 100× magnification by measuring the percentage of blue stained area. […] After staining, the stained sections were scanned by a polarization microscope, and the degree of collagen deposition in the lung was evaluated based on the image. All collagen density data were quantified by ImageJ software.

[3] = mice
Experimental: Real-time fluorescence images were obtained by the small animal in vivo imaging system at regular intervals. The same treatment was carried out using the same dose of rhodamine B-free as the control group.

SMILES	lung structure / fibrosis by micro-CT ([1]; after 4 weeks of treatment)	mortality ([1]; bleomycin mice, PFD 300 mg/kg daily, intragastric)	weight change of mice ([1]; weight recorded every two days)	collagen accumulation / deposition (Masson trichrome staining) ([2]; fibrosis around bronchi, versus PBS group)	airway remodeling, angiogenesis and parenchymal inflammation (lung histopathology) ([2]; increased by bleomycin exposure)	therapeutic effect on collagen deposition (Sirius red staining) ([2]; polarization microscope)	site of deposition (lung versus gastrointestinal tract), fluorescence signals ([3]; nebulized inhalation, in vivo imaging)	time until fluorescence signals disappeared completely ([3]; single inhalation) [weeks]
Cc1ccc(=O)n(-c2ccccc2)c1 [Pirfenidone]	a certain degree of fibrosis	died within three weeks	progressive weight loss	lower than that of the PBS group	attenuated these effects	slight therapeutic effect		
CCN(CC)c1ccc2c(-c3ccccc3C(=O)O)c3ccc(=[N+](CC)CC)cc-3oc2c1 [rhodamine B-free, rhodamine B]							higher	≤ 2
